Data reported in patent US6218393A, “Anthranilic acid derivatives as multi drug resistance modulators” (priority 1997, dated 2001).

What was measured:
AR 1.0 cells [1] = assay: Drug accumulation assay: daunorubicin accumulation in AR 1.0 cells; type: cell-based; conditions: Mus musculus, 100% = accumulation with verapamil 100 μM, 1 hr, 37° C.
In short: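 Daunorubicin accumulation was measured in cells plated 48 h beforehand. These were AR 1.0 cells, an MDR-resistant derivative of mouse EMT6 mammary carcinoma, cultured at 37 °C in 5% CO2 in RPMI 1640 plus 10% foetal calf serum and 2 mM glutamine.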

AR 1.0 cells [2] = assay: Potentiation of doxorubicin toxicity: proliferation assay (sulphorhodamine B); type: cell-based, mouse
Excerpt: (a) Selected compounds of formula (I) were examined for their ability to potentiate the toxicity of doxorubicin in AR 1.0 cells.

AR 1.0 cells [3] = assay: Potentiation index with doxorubicin titration; type: cell-based, mouse; conditions: for Potentiation Index at RMA concentration 10 nM: Table C2, RMA 10 nM; for Potentiation Index at RMA concentration 30 nM: Table C2, RMA 30 nM; for Potentiation Index at RMA concentration 100 nM: Table C2, RMA 100 nM; for Potentiation Index at RMA concentration 300 nM: Table C2, RMA 300 nM; for Potentiation Index at RMA concentration 500 nM: Table C2, RMA 500 nM
In short: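 Doxorubicin IC50 in AR 1.0 cells (MDR subline of EMT6 mouse mammary carcinoma) determined by sulphorhodamine B after 4-day culture across 0.263 nM-17.24 μM, with and without a fixed dose of test compound; their ratio gives the PI.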

[4] = Mus musculus, 96 h, compound alone, four day proliferation, read-out: Compound Toxicity (IC50)
[5] = with fixed doxorubicin 0.34 μm, four days, 5760 min, read-out: Toxicity with Cytotoxic Agent (IC50)

IC50 (AR 1.0 cells [1]) [nM]	Structure (SMILES)	IC50 (AR 1.0 cells [2]; [4]) [nM]	Potentiation Index at RMA concentration 10 nM (AR 1.0 cells [3])	Potentiation Index at RMA concentration 30 nM (AR 1.0 cells [3])	IC50 (AR 1.0 cells [2]; [5]) [nM]	Potentiation Index at RMA concentration 100 nM (AR 1.0 cells [3])	Potentiation Index at RMA concentration 300 nM (AR 1.0 cells [3])	Potentiation Index at RMA concentration 500 nM (AR 1.0 cells [3])
690	COc1cc2c(cc1OC)CN(CCNC(=O)c1ccccc1NC(=O)c1ccc(Oc3ccccc3)cc1)CC2 [compound 9426, 2-(4-Phenoxy-benzoylamino)-N-[2-(6,7-dimethoxy-3,4-dihydro-1H-isoquinolin-2-yl)-ethyl]-benzamide]	7000	–	–	60	–	–	65
1200	COc1cc2c(cc1OC)CN(CCNC(=O)c1ccccc1NC(=O)c1ccc(C(C)C)cc1)CC2 [compound 9304, 2-(4-Isopropyl-benzoylamino)-N-[2-(6,7-dimethoxy-3,4-dihydro-1H-isoquinolin02-yl)-ethyl]-benzamide]	8000	–	–	150	–	–	30
1900	COc1cc2c(cc1OC)CN(CCNC(=O)c1ccc(N)cc1NC(=O)c1ccc(C(C)C)cc1)CC2 [compound 9435, 2-(4-Isopropyl-benzoylamino)-N-[2-(6,7-dimethoxy-3,4-dihydro-1H-isoquinolin-2-yl)-ethyl]-4-amino-benzamide]	9000	–	–	400	–	–	–
2000	COc1cc2c(cc1OC)CN(CCNC(=O)c1ccccc1NC(=O)c1nccc3ccccc13)CC2 [compound 9383, Isoquinoline-1-carboxylic acid {2-[2-(6,7-dimethoxy-3,4-dihydro-1H-isoquinolin-2-yl)-ethylcarbamoyl]-phenyl}-amide]	40000	–	–	–	–	–	–
3000	COc1cc2c(cc1OC)CN(CCNC(=O)c1ccccc1NC(=O)c1cnc3ccccc3n1)CC2 [compound 9347, Quinoxaline-2-carboxylic acid {2-[2-(6,7-dimethoxy-3,4-dihydro-1H-isoquinolin-2-yl)-ethylcarbamoyl]-phenyl}-amide]	35000	–	–	600	–	–	–
9000	COc1cc2c(cc1OC)CN(CCNC(=O)c1ccccc1NC(=O)c1ccccc1)CC2 [compound 9351, 2-Benzoylamino-N-[2-(6,7-dimethoxy-3,4-dihydro-1H-isoquinolin-2-yl)-ethyl]-benzamide]	43000	–	–	1300	–	–	–
1700	COc1cc2c(cc1OC)CN(CCNC(=O)c1ccccc1NC(=O)c1ccc(N(C)C)cc1)CC2 [compound 9256]	40000	–	–	300	–	–	–
3000	COc1cc2c(cc1OC)CN(CCNC(=O)c1ccccc1NC(=O)c1ccc([N+](=O)[O-])cc1)CC2 [compound 9381, 2-(4-Nitro-benzoylamino)-N-[2-(6,7-dimethoxy-3,4-dihydro-1H-isoquinolin-2-yl)-ethyl]-benzamide]	50000	–	–	1500	–	–	–
900	COc1cc2c(cc1OC)CN(CCNC(=O)c1ccccc1NC(=O)c1ccc(Br)cc1)CC2 [compound 9380, 2-(4-Bromo-benzoylamino)-N-[2-(6,7-dimethoxy-3,4-dihydro-1H-isoquinolin-2-yl)-ethyl]-benzamide]	40000	–	–	500	–	–	–
1800	COc1cc2c(cc1OC)CN(CCNC(=O)c1ccccc1NC(=O)c1cc3ccccc3cn1)CC2 [compound 9389, Isoquinoline-3-carboxylic acid {2-[2-(6,7-dimethoxy-3,4-dihydro-1H-isoquinolin-2-yl)-ethylcarbamoyl]-phenyl}-amide]	30000	–	–	–	–	–	–
2000	COc1cc2c(cc1OC)CN(CCNC(=O)c1ccccc1NC(=O)c1ccsc1)CC2 [compound 9365, Thiophene-3-carboxylic acid {2-[2-(6,7-dimethoxy-3,4-dihydro-1H-isoquinolin-2-yl)-ethylcarbamoyl]-phenyl}-amide]	42000	–	–	800	–	–	–
1200	CCN(CC)c1ccc(C(=O)Nc2ccccc2C(=O)NCCN2CCc3cc(OC)c(OC)cc3C2)cc1 [compound 9310, 2-(4-Diethylamino-benzoylamino)-N-[2-(6,7-dimethoxy-3,4-dihydro-1H-isoquinolin-2-yl)-ethyl]-benzamide]	22000	–	–	240	–	–	–
1300	COc1cc2c(cc1OC)CN(CCNC(=O)c1ccccc1NC(=O)c1ccc(C(C)(C)C)cc1)CC2 [compound 9334, 2-(4-tert-Butyl-benzoylamino)-N-[2-(6,7-dimethoxy-3,4-dihydro-1H-isoquinolin-2-yl)-ethyl]-benzamide]	8000	–	–	50	–	–	–

More lines, now with the values behind:

Structure (SMILES)	IC50 (AR 1.0 cells [1]) [nM]	IC50 (AR 1.0 cells [2]; [4]) [nM]	Potentiation Index at RMA concentration 10 nM (AR 1.0 cells [3])	Potentiation Index at RMA concentration 30 nM (AR 1.0 cells [3])	IC50 (AR 1.0 cells [2]; [5]) [nM]	Potentiation Index at RMA concentration 100 nM (AR 1.0 cells [3])	Potentiation Index at RMA concentration 300 nM (AR 1.0 cells [3])	Potentiation Index at RMA concentration 500 nM (AR 1.0 cells [3])
COc1cc2c(cc1OC)CN(CCc1ccc(NC(=O)c3ccc(Cl)cc3NC(=O)c3cnc4ccccc4c3)cc1)CC2 [compound 9586, Quinoline-3-carboxylic acid (2-{4-[2-(6,7-dimethoxy-3,4-dihydro-1H-isoquinolin-2-yl)-ethyl]-phenylcarbamoyl}-5-chloro-phenyl)-amide]	180	7400	5	6	–	–	–	–
COc1cc2c(cc1OC)CN(CCc1ccc(NC(=O)c3ccccc3NC(=O)c3cnccn3)cc1)CC2 [compound 9493, Pyrazine-2-carboxylic acid (2-{4-[2-(6,7-dimethoxy-3,4-dihydro-1H-isoquinolin-2-yl)-ethyl]-phenylcarbamoyl}-phenyl)-amide]	220	9000	–	–	50	7.6	85	200
COc1cc2c(cc1OC)CN(CCc1ccc(NC(=O)c3ccc(N)cc3NC(=O)c3cnc4ccccc4c3)cc1)CC2 [compound 9589, Quinoline-3-carboxylic acid (2-{4-[2-(6,7-dimethoxy-3,4-dihydro-1H-isoquinolin-2-yl)-ethyl]-phenylcarbamoyl}-5-amino-phenyl)-amide]	1000	36800	1	1	–	–	–	–
COc1cc2c(cc1OC)CN(CCc1ccc(NC(=O)c3cc(F)ccc3NC(=O)c3cnc4ccccc4n3)cc1)CC2 [compound 9568, Quinoxaline-2-carboxylic acid. (2-{4-[2-(6,7-dimethoxy-3,4-dihydro-1H-isoquinolin-2-yl)-ethyl]-phenylcarbamoyl}-4-fluoro-phenyl)-amide]	17	2800	23	60	3.4	88	–	–
COc1cc2c(cc1OC)CN(CCc1ccc(NC(=O)c3ccccc3NC(=O)c3ccccc3Cl)cc1)CC2 [compound 9494]	400	9000	–	–	50	–	38	148
COc1cc2c(cc1OC)CN(CCc1ccc(NC(=O)c3ccccc3NC(=O)c3ccc(C)c(C)c3)cc1)CC2 [compound 9538, 2-(3,4-Dimethyl-benzoylamino)-N-{4-[2-(6,7-dimethoxy-3,4-dihydro-1H-isoquinolin-2-yl)-ethyl]-phenyl}-benzamide]	220	2300	–	–	14	43	128	–
COc1cc2c(cc1OC)CN(CCc1ccc(NC(=O)c3ccccc3NC(=O)c3cccnc3)cc1)CC2 [compound 9482, N-(2-{4-[2-(6,7-Dimethoxy-3,4-dihydro-1H-isoquinolin-2-yl)-ethyl]-phenylcarbamoyl}-phenyl)-nicotinamide]	540	12000	–	–	220	–	–	–
COc1cc2c(cc1OC)CN(CCNC(=O)c1ccccc1NC(=O)c1ccc3ccccc3n1)CC2 [compound 9385, Quinoline-2-carboxylic acid {2-[2-(6,7-dimethoxy-3,4-dihydro-1H-isoquinolin-2-yl)-ethylcarbamoyl]-phenyl}-amide]	1200	40000	–	–	–	–	–	–
COc1cc2c(cc1OC)CN(CCc1ccc(NC(=O)c3ccccc3NC(=O)c3ccccc3OC(C)=O)cc1)CC2 [compound 9534, Acetic acid 2-(2-{4-[2-(6,7-dimethoxy-3,4-dihydro-1H-isoquinolin-2-yl)-ethyl]-phenylcarbamoyl}-phenylcarbamoyl)-phenyl ester]	140	6600	–	–	0.2	–	–	–
CCC(=O)c1cnc(C(=O)Nc2ccccc2C(=O)Nc2ccc(CCN3CCc4cc(OC)c(OC)cc4C3)cc2)cn1 [compound 9569, 5-Propionyl-pyrazine-2-carboxylic acid (2-{4-[2-(6,7-dimethoxy-3,4-dihydro-1H-isoquinolin-2-yl)-ethyl]-phenylcarbamoyl}-phenyl)-amide]	930	190	–	–	8	–	–	–
COc1cc2c(cc1OC)CN(CCc1ccc(NC(=O)c3ccccc3NC(=O)c3ccc(OC(C)=O)cc3)cc1)CC2 [compound 9548, Acetic acid 4-(2-{4-[2-(6,7-dimethoxy-3,4-dihydro-1H-isoquinolin-2-yl)-ethyl]-phenylcarbamoyl}-phenylcarbamoyl)-phenyl ester]	4900	1800	–	–	1000	–	–	–
COc1cc2c(cc1OC)CN(CCc1ccc(NC(=O)c3ccccc3NC(=O)c3cccc(OC(C)=O)c3)cc1)CC2 [compound 9540, Acetic acid 3-(2-{4-[2-(6,7-dimethoxy-3,4-dihydro-1H-isoquinolin-2-yl)-ethyl]-phenylcarbamoyl}-phenylcarbamoyl)-phenyl ester]	1200	6200	–	–	1000	–	–	–
